Test results from the supplement of paper PMC11451515.

Key:
Assay in all cases: AUC of viability dose-response curve (% viability x log10 dose units); higher = less sensitive
Settings in all cases: 48 h
NOMO1 = system: NOMO1
Summary of the method: (§1)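 Leukemia cells adapted to each medium were seeded in 1536-well plates (500 or 1000 cells/well) and given library compounds in DMSO for 48 h at 37°C. The 11 threefold doses spanned 47 μM to 0.79 nM, and CellTiter-Glo One luminescence was normalised per plate to DMSO and cell-free wells before four-parameter log-logistic fitting on log10 dose. Area under the curve was integrated with the trapezoidal rule, scaling curves above full viability and removing curves that failed quality control.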

P12-Ichikawa = system: P12-Ichikawa
Summary of the method: as §1

SEM cells = system: SEM cells
Summary of the method: as §1

[1] = RPMI 5 mM glucose + 10% dialyzed FBS

Structure (SMILES)	AUC of viability dose-response curve (NOMO1; HPLM + 10% dialyzed FBS)	AUC of viability dose-response curve (NOMO1; RPMI 5 mM glucose + 10% FBS)	AUC of viability dose-response curve (NOMO1; [1])	AUC of viability dose-response curve (P12-Ichikawa; HPLM + 10% dialyzed FBS)	AUC of viability dose-response curve (P12-Ichikawa; RPMI 5 mM glucose + 10% FBS)	AUC of viability dose-response curve (P12-Ichikawa; [1])	AUC of viability dose-response curve (SEM cells; HPLM + 10% dialyzed FBS)	AUC of viability dose-response curve (SEM cells; RPMI 5 mM glucose + 10% FBS)	AUC of viability dose-response curve (SEM cells; [1])
O=C(O)CCCc1ccc(N(CCCl)CCCl)cc1	468	464	465	455	456	462	458	451	458
COC(=O)Nc1nc2cc(Sc3ccccc3)ccc2[nH]1	377	391	387	377	376	382	377	365	371
CNC(=O)c1cc(COc2nnc(Nc3ccc(Cl)cc3)c3ccoc23)ccn1	449	446	452	440	458	440	452	446	436
Cc1n[nH]c(C)c1Cc1sc2c(c1C(=O)N1C[C@H](O)CO1)c(=O)n(C)c(=O)n2CC(C)C	456	476	468	416	410	417	366	408	444
NC(=O)Cc1cccc(C(=O)c2ccccc2)c1N	461	435	436	468	456	455	433	404	428
COc1ccc(CC2SC(=O)NC2=O)cc1C(=O)NCc1ccc(C(F)(F)F)cc1 (stereo not given)	416	415	427	430	396	361	381	439	393
NCC/1=C/NC(=S)N1[C@H]2CCC3=C(F)C=C(F)C=C3C2	395	470	466	464	463	462	458	453	456
CCC1=C2CN3C(=O)\C4=C(/C=C3/C2=NC5=CC=C(O)C=C15)[C@@](O)(CC)C(=O)OC4	226	211	218	109	102	105	158	137	140
Clc1ccc(C(Cn2ccnc2)OCc2ccsc2Cl)c(Cl)c1 (stereo not given)	470	476	457	467	461	464	456	467	463
COC(=O)[C@@H]1CC2=CC(=O)CC[C@]2(C)[C@@]23O[C@@H]2C[C@@]2(C)[C@@H](CC[C@@]24CCC(=O)O4)[C@H]13	456	467	450	458	446	451	444	456	421
CN(C)[C@H]\1[C@@H]2[C@@H](O)[C@H]3\C(=C(O)/[C@]2(O)C(=O)\C(=C1O)C(N)=O)C(=O)C4=C(C=CC=C4O)[C@@]3(C)O	448	459	449	454	456	421	459	463	476
Cc1n[nH]c2ccc(-c3cncc(OC[C@@H](N)Cc4c[nH]c5ccccc45)c3)cc12	270	310	280	309	294	290	245	286	265
CC1(C)NC(=O)N(c2ccc([N+](=O)[O-])c(C(F)(F)F)c2)C1=O	439	431	407	424	410	371	404	454	461
O=C(N[C@H]1CN2CCC1CC2)c1ccc(Cl)cc1	462	470	469	467	469	466	457	439	468
OC[C@H]1O[C@H](C[C@@H]1O)N2\C=C(\I)C(=O)NC2=O	456	470	446	435	462	472	452	454	386
